Laboratory results as given in patent US8802700B2 (Vertex Pharmaceuticals Incorporated, priority 2010, dated 2014).

The compounds below were run against T1, ΔF508-CFTR (Homo sapiens, UniProt P13569, DEL508-508) (assay: Membrane potential optical assay (FRET voltage-sensor dyes, VIPR), identification of potentiator compounds). Settings: Table 3; assay not given.
T1 construct: expressed in transfected cells
Assay type: cell-based
How it was run: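 Potentiator screen measured membrane potential via FRET between CC2-DMPE donor and DiSBAC2(3), read on VIPR II. Compound went in with the first addition of chloride-free gluconate bath; cells were ΔF508-CFTR-expressing NIH3T3 mouse fibroblasts, temperature-corrected at 27 °C for 24 h.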

T1 sequence (P13569 with tags, fused parts or gaps DEL508-508): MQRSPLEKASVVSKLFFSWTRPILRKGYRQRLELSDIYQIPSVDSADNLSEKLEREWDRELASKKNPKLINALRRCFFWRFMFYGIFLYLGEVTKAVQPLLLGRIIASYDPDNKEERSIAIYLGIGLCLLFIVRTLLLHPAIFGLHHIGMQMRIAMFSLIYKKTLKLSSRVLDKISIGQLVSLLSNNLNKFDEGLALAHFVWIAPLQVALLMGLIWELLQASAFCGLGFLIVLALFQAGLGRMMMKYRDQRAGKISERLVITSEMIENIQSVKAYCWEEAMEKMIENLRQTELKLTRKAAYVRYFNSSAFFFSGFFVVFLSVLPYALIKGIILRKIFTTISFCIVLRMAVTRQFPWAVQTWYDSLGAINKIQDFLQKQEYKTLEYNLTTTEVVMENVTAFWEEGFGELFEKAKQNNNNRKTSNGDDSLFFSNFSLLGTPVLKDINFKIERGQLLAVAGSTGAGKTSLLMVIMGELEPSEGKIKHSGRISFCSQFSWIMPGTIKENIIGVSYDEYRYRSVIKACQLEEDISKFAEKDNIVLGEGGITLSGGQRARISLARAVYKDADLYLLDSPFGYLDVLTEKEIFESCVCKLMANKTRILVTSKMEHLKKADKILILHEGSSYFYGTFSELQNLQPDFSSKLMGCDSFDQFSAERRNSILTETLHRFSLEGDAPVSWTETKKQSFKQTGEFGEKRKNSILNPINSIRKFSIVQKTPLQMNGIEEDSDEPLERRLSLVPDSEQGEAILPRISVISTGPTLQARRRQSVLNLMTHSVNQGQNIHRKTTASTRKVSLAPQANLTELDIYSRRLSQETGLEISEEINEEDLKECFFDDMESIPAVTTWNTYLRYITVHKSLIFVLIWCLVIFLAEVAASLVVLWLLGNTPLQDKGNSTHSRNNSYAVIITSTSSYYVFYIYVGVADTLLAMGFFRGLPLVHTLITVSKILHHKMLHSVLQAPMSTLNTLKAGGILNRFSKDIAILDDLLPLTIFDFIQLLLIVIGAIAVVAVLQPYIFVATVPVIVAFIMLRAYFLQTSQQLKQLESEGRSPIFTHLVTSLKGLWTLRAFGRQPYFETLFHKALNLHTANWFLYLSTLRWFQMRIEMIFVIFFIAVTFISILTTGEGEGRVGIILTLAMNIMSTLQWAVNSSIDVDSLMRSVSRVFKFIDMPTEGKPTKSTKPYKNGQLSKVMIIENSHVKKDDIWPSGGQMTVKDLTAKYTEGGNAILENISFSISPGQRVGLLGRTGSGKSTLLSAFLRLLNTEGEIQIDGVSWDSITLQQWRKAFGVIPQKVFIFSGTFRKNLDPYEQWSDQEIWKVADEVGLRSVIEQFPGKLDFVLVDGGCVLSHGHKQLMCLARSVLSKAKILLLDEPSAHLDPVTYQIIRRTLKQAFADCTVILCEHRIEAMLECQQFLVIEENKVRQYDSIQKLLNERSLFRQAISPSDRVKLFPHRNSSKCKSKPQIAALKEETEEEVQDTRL

`CC(C)c1ccc(NC(=O)c2c[nH]c3ccccc3c2=O)cc1` [Compound 425, N-(4-isopropylphenyl)-4-oxo-1H-quinoline-3-carboxamide] and `CS(=O)(=O)Nc1cc(NC(=O)c2c[nH]c3ccccc3c2=O)cc(C(F)(F)F)c1` [Compound 441, N-[3-methylsulfonylamino-5-(trifluoromethyl)phenyl]-4-oxo-1H-quinoline-3-carboxamide] cannot be ordered by EC50: < 10 µM for the first, < 10 µM for the second.

Same assay, conditions: Table 3; assay not given; read-out: % Activity (% Efficacy, relative efficacy)

`O=C(Nc1ccc(Cl)cc1)c1c[nH]c2ccccc2c1=O` [Compound 405, N-(4-chlorophenyl)-4-oxo-1H-quinoline-3-carboxamide] and `CC(C)c1ccc(NC(=O)c2c[nH]c3ccccc3c2=O)cc1` [Compound 425, N-(4-isopropylphenyl)-4-oxo-1H-quinoline-3-carboxamide] fall in the same range of Emax: 25 to 100% for the first, 25 to 100% for the second.

`CN(c1ccc(F)cc1)S(=O)(=O)c1ccc2[nH]cc(C(=O)Nc3cc4[nH]ccc4cc3C(C)(C)C)c(=O)c2c1` [Compound 406, 6-[(4-fluorophenyl)-methyl-sulfamoyl]-4-oxo-N-(5-tert-butyl-1H-indol-6-yl)-1H-quinoline-3-carboxamide] and `CC(C)(C)c1cc(Cl)c(O)cc1NC(=O)c1c[nH]c2ccccc2c1=O` [Compound 426, N-(4-chloro-5-hydroxy-2-tert-butyl-phenyl)-4-oxo-1H-quinoline-3-carboxamide] fall in the same range of Emax: 25 to 100% for the first, 25 to 100% for the second.

`CC(C)(C)c1cc(F)c(NC(=O)c2c[nH]c3cccc(O)c3c2=O)cc1O` [Compound 407, N-(2-fluoro-5-hydroxy-4-tert-butyl-phenyl)-5-hydroxy-4-oxo-1H-quinoline-3-carboxamide] and `CC(C)(C)c1ccc(NC(=O)c2c[nH]c3ccccc3c2=O)cc1O` [Compound 428, N-(3-hydroxy-4-tert-butyl-phenyl)-4-oxo-1H-quinoline-3-carboxamide] fall in the same range of Emax: 25 to 100% for the first, 25 to 100% for the second.

`COc1cccc(NC(=O)c2c[nH]c3ccccc3c2=O)c1` [Compound 408, N-(3-methoxyphenyl)-4-oxo-1H-quinoline-3-carboxamide] and `Cc1cccc(NC(=O)c2c[nH]c3ccccc3c2=O)c1` [Compound 449, N-(m-tolyl)-4-oxo-1H-quinoline-3-carboxamide] fall in the same range of Emax: 25 to 100% for the first, 25 to 100% for the second.

`CCc1ccc(N(C)C)cc1NC(=O)c1c[nH]c2ccccc2c1=O` [Compound 409, N-(5-dimethylamino-2-ethyl-phenyl)-4-oxo-1H-quinoline-3-carboxamide] and `CN(C)c1cccc(NC(=O)c2c[nH]c3ccccc3c2=O)c1` [Compound 418, N-(3-dimethylaminophenyl)-4-oxo-1H-quinoline-3-carboxamide] fall in the same range of Emax: 25 to 100% for the first, 25 to 100% for the second.

Compared with `O=C(Nc1ccccc1-c1ccc(Oc2ccccc2)cc1)c1c[nH]c2ccccc2c1=O` [Compound 410, 4-oxo-N-[2-(4-phenoxyphenyl)phenyl]-1H-quinoline-3-carboxamide], `O=C(Nc1ccccc1Oc1ccccc1)c1c[nH]c2ccccc2c1=O` [Compound 413, 4-oxo-N-(2-phenoxyphenyl)-1H-quinoline-3-carboxamide] is lower in Emax: > 100% for the first, 25 to 100% for the second.

`O=C(Nc1ccccc1)c1c[nH]c2cc(Cl)ccc2c1=O` [Compound 411, 7-chloro-4-oxo-N-phenyl-1H-quinoline-3-carboxamide] and `Nc1cccc(NC(=O)c2c[nH]c3ccccc3c2=O)c1` [Compound 431, N-(3-aminophenyl)-4-oxo-1H-quinoline-3-carboxamide] fall in the same range of Emax: 25 to 100% for the first, 25 to 100% for the second.

`CCOC(=O)c1c(NC(=O)c2c[nH]c3ccccc3c2=O)ccc2cc[nH]c12` [Compound 412, 6-[(4-oxo-1H-quinolin-3-yl)carbonylamino]-1H-indole-7-carboxylic acid ethyl ester] and `CCOC(=O)C(C)(C)c1ccc(NC(=O)c2c[nH]c3ccccc3c2=O)cc1` [Compound 420, 2-methyl-2-[4-[(4-oxo-1H-quinolin-3-yl)carbonylamino]phenyl]-propanoic acid ethyl ester] fall in the same range of Emax: 25 to 100% for the first, 25 to 100% for the second.

`O=C(Nc1ccc2nc[nH]c2c1)c1c[nH]c2ccccc2c1=O` [Compound 414, N-(3H-benzoimidazol-5-yl)-4-oxo-1H-quinoline-3-carboxamide] and `O=C(Nc1ccc2nccnc2c1)c1c[nH]c2ccccc2c1=O` [Compound 443, 4-oxo-N-quinoxalin-6-yl-1H-quinoline-3-carboxamide] cannot be ordered by Emax: < 25% for the first, < 25% for the second.

`COc1c(C(=O)Nc2ccc(C(C)(C)C)c(O)c2)cnc2ccccc12` [Compound 415, N-(3-Hydroxy-4-tert-butyl-phenyl)-4-methoxy-quinoline-3-carboxamide] and `COC(=O)c1cc(NC(=O)c2c[nH]c3ccccc3c2=O)ccc1C(C)(C)C` [Compound 444, 5-[(4-oxo-1H-quinolin-3-yl)carbonylamino]-2-tert-butyl-benzoic acid methyl ester] fall in the same range of Emax: 25 to 100% for the first, 25 to 100% for the second.

`CCCOC(=O)NCC(C)(C)c1ccc(NC(=O)c2c[nH]c3ccccc3c2=O)cc1` [Compound 416, [2-methyl-2-[4-[(4-oxo-1H-quinolin-3-yl)carbonylamino]phenyl]-propyl]aminoformic acid propyl ester] and `CC(C)(C)c1ccc(NC(=O)c2c[nH]c3ccccc3c2=O)cc1` [Compound 448, 4-oxo-N-(4-tert-butylphenyl)-1H-quinoline-3-carboxamide] fall in the same range of Emax: 25 to 100% for the first, 25 to 100% for the second.

`O=C(Nc1ccccc1-c1csc2ccccc12)c1c[nH]c2ccccc2c1=O` [Compound 417, N-(2-(benzo[b]thiophen-3-yl)phenyl)-1,4-dihydro-4-oxoquinoline-3-carboxamide] and `O=C(Nc1ccccc1-c1ccc(Cl)cc1)c1c[nH]c2ccccc2c1=O` [Compound 424, N-[2-(4-chlorophenyl)phenyl]-4-oxo-1H-quinoline-3-carboxamide] fall in the same range of Emax: 25 to 100% for the first, 25 to 100% for the second.

Compared with `CC(=O)Nc1cccc(NC(=O)c2c[nH]c3ccccc3c2=O)c1` [Compound 419, N-(3-acetylaminophenyl)-4-oxo-1H-quinoline-3-carboxamide], `N#Cc1cccc(NC(=O)c2c[nH]c3ccccc3c2=O)c1` [Compound 447, N-(3-cyanophenyl)-4-oxo-1H-quinoline-3-carboxamide] is higher in Emax: < 25% for the first, 25 to 100% for the second.

`COc1cc(NC(=O)c2c[nH]c3ccccc3c2=O)c(C(F)(F)F)cc1C(C)(C)C` [Compound 421, N-[5-methoxy-4-tert-butyl-2-(trifluoromethyl)phenyl]-4-oxo-1H-quinoline-3-carboxamide] and `CC(C)(C)c1cc(C(C)(C)C)c(C(F)F)cc1NC(=O)c1c[nH]c2ccccc2c1=O` [Compound 438, N-[5-(difluoromethyl)-2,4-ditert-butyl-phenyl]-4-oxo-1H-quinoline-3-carboxamide] fall in the same range of Emax: 25 to 100% for the first, 25 to 100% for the second.

`CCOCCc1c[nH]c2cc(NC(=O)c3c[nH]c4ccccc4c3=O)ccc12` [Compound 423, N-[3-(2-ethoxyethyl)-1H-indol-6-yl]-4-oxo-1H-quinoline-3-carboxamide] and `COc1ccc(NC(=O)c2c[nH]c3ccccc3c2=O)cc1` [Compound 439, N-(4-methoxyphenyl)-4-oxo-1H-quinoline-3-carboxamide] fall in the same range of Emax: 25 to 100% for the first, 25 to 100% for the second.

`CC(C)(C)OC(=O)N1CCc2c(cccc2NC(=O)c2c[nH]c3ccccc3c2=O)C1` [Compound 427, 5-[(4-oxo-1H-quinolin-3-yl)carbonylamino]-1,2,3,4-tetrahydroisoquinoline-2-carboxylic acid tert-butyl ester] and `Cc1ccc(C)c(NC(=O)c2c[nH]c3ccccc3c2=O)c1` [Compound 434, N-(2,5-dimethylphenyl)-4-oxo-1H-quinoline-3-carboxamide] fall in the same range of Emax: 25 to 100% for the first, 25 to 100% for the second.

`Nc1cc(NC(=O)c2c[nH]c3ccccc3c2=O)cc(C(F)(F)F)c1` [Compound 429, N-[3-amino-5-(trifluoromethyl)phenyl]-4-oxo-1H-quinoline-3-carboxamide] and `CS(=O)(=O)Nc1cc(NC(=O)c2c[nH]c3ccccc3c2=O)cc(C(F)(F)F)c1` [Compound 441, N-[3-methylsulfonylamino-5-(trifluoromethyl)phenyl]-4-oxo-1H-quinoline-3-carboxamide] fall in the same range of Emax: 25 to 100% for the first, 25 to 100% for the second.

`Cc1cccc(C(C)C)c1NC(=O)c1c[nH]c2ccccc2c1=O` [Compound 430, N-(2-isopropyl-6-methyl-phenyl)-4-oxo-1H-quinoline-3-carboxamide] and `CC(O)c1ccc(NC(=O)c2c[nH]c3ccccc3c2=O)cc1` (centres unmarked) [Compound 450, N-[4-(1-hydroxyethyl)phenyl]-4-oxo-1H-quinoline-3-carboxamide] fall in the same range of Emax: 25 to 100% for the first, 25 to 100% for the second.

`CC(C)c1ccc(-c2ccccc2NC(=O)c2c[nH]c3ccccc3c2=O)cc1` [Compound 432, N-[2-(4-isopropylphenyl)phenyl]-4-oxo-1H-quinoline-3-carboxamide] and `COc1ccc(-c2ccccc2NC(=O)c2c[nH]c3ccccc3c2=O)cc1OC` [Compound 436, N-[2-(3,4-dimethoxyphenyl)phenyl]-4-oxo-1H-quinoline-3-carboxamide] fall in the same range of Emax: 25 to 100% for the first, 25 to 100% for the second.

Compared with `O=C(Nc1cccnc1Oc1ccccc1F)c1c[nH]c2ccccc2c1=O` [Compound 435, N-[2-(2-fluorophenoxy)-3-pyridyl]-4-oxo-1H-quinoline-3-carboxamide], `C=C(C)c1ccccc1NC(=O)c1c[nH]c2ccccc2c1=O` [Compound 445, N-(2-isopropenylphenyl)-4-oxo-1H-quinoline-3-carboxamide] is higher in Emax: 25 to 100% for the first, > 100% for the second.

First: O=C(Nc1ccc2c(c1)OCO2)c1c[nH]c2ccccc2c1=O [Compound 437, N-benzo[1,3]dioxol-5-yl-4-oxo-1H-quinoline-3-carboxamide]
Second: O=C(Nc1ccc2c(c1)OC(F)(F)C(F)(F)O2)c1c[nH]c2ccccc2c1=O [Compound 440, N-(2,2,3,3-tetrafluoro-2,3-dihydrobenzo[b][1,4]dioxin-6-yl)-1,4-dihydro-4-oxoquinoline-3-carboxamide]
The Emax of the first is lower: < 25% for the first, 25 to 100% for the second.

`O=C(Nc1cccc(S(=O)(=O)N2CCCCC2)c1)c1c[nH]c2ccccc2c1=O` [Compound 442, 4-oxo-N-[3-(1-piperidylsulfonyl)phenyl]-1H-quinoline-3-carboxamide] and `O=C(Nc1ccc2c(c1)S(=O)(=O)C=C2)c1c[nH]c2ccccc2c1=O` [Compound 446, N-(1,1-dioxobenzothiophen-6-yl)-4-oxo-1H-quinoline-3-carboxamide] cannot be ordered by Emax: < 25% for the first, < 25% for the second.

Compound `CCc1cc(C#N)ccc1NC(=O)c1c[nH]c2ccccc2c1=O` [Compound 451, N-(4-cyano-2-ethyl-phenyl)-4-oxo-1H-quinoline-3-carboxamide] has an Emax of 25 to 100%.
